Results taken from patent publication US20240408167A1, “COMPOSITION FOR TREATING OCULAR DISEASES CONTAINING PEPTIDE” (Encuragen Inc., priority 2023, published 2024).

Assays:
Format in all cases: in vivo
[1] = test system: inflammatory cells infiltrated into the stromal layer; experiment: Immune cell counts by H&E staining, EDE rabbit model; details: 10 days after the treatment
Excerpt: The extracted eyes were washed with phosphate-buffered saline (PBS), fixed in the modified Davidson's solution, and embedded in paraffin (Histocore Arcadia, Leica, Wetzlar, Germany). Afterwards, paraffin blocks were sliced into sections of a ˜6 μm thickness, mounted on microscope slides (HistoCore AUTOCUT, Leica, Germany), air dried, and stained with hematoxylin-eosin. The stained tissue slides were imaged, and data were obtained using an optical microscope/digital slide scanner (Axio Scan.Z1, Zeiss, Oberkochen, Germany). Image measurement was performed using ZEN (Zeiss, Germany) and ImageJ (NIH, Bethesda, […], USA) software programs.
The DED inflammatory pathway also includes the infiltration of differentiated (antigen-specific) T cells into the cornea, conjunctiva, and lacrimal gland. To evaluate the anti-inflammatory effect of (PEG)-BHD1028 in the EDE rabbit model, the number of inflammatory cells infiltrated into the stromal layer was measured by H&E staining 10 days after the treatment.

[2] = test system: rabbit DED model; experiment: Schirmer tear test (STT), rabbit DED model
Experimental: The rabbit DED model was induced by locally administrating 0.1% benzalkoniumchloride (BAC) drops (Sigma, St. Louis, MO, USA) twice a day (8 a.m. and 4 p.m.). Before the BAC treatment, the control group (baseline, naive) underwent standard dry eye clinical tests such as the Schirmer tear test (STT), TBUT, and corneal staining score (CSS) test. After the BAC treatment, the induction of dry eye syndrome was confirmed, and the test substance was administered for 10 days while maintaining the induction of dry eye syndrome. […] The test substance was locally applied bis in die (BID) to both eyes.
(§1) The tear secretion was measured for 20 seconds by contacting a cotton thread containing phenol red (Zone-Quick™; Oasis Medical, Inc., Glendora, CA, USA) to the conjunctival sac on the lateral canthus of the mouse eye. After measuring the length using a Nikon SMZ1500 microscope, the length substituted to the prescribed formula, and the value was converted to volume. The tear production of the rabbits was measured by a modified Schirmer tear test using Whatman 41 filter paper strips (Tianjin Jingming New Technology Development Co., Ltd., Tianjin, China) on Day 0, Day 5, and Day 10. Eye examination of the rabbits was performed under anesthesia. The anesthesia was performed under sedation by performing intramuscular injection of xylazine (3 mg/kg, Rompun®; Bayer Korea, Korea) and intramuscular injection of 10 mg/kgtiletamine/zolazepam (Zoletil®, Virbac Laboratories, Carros, France). After adding 1 drop of proparacaine HCl 0.5% (Alcaine®, Alcon Korea Ltd., Seoul, Korea), excess tears and eye drops were removed with Weck-cel® […]. The wet length (mm) of the paper strip was read after 5 minutes.

[3] = test system: mouse experimental dry eye (EDE) model; experiment: Corneal fluorescein staining (CFS) score, EDE mouse model
Experimental: (§2) To confirm the pharmacological effect and appropriate dosage, a pilot study was first conducted with the mice. In addition, a rabbit DED (Dry Eye Disease) model with a large exposed facial area was evaluated in comparison with a mouse model. In the mouse experimental dry eye (EDE) model, scopolamine hydrobromide (Sigma-Aldrich. St. Louis, MO, USA) was subcutaneously injected three times a day (9 a.m., 1:30 p.m., 6 p.m.) in a room exposed to ventilation with an ambient humidity of less than 40% at 25±2° C. to induce DED.
(§3) The mice were randomly divided into five groups: (1) EDE (experimental dry eye) control mice without eye drops administration, (2) EDE mice treated with a vehicle (phosphate-buffered saline), (3) EDE mice treated with 0.001% (PEG)-BHD1028 (4) EDE mice treated with 0.01% (PEG)-BHD1028, and (5) EDE mice treated with 0.1% (PEG)-BHD1028. All the treatment groups received 2 μL of eye drops three times a day.
The subjects were evaluated by corneal staining, and the abnormal findings of the eyelids, cornea, and conjunctiva were recorded. After dropping 1 μL of the 1% fluorescent dye solution and washing with saline solution, and the cornea was observed under a slit-lamp microscope and scored to evaluate the degree of epithelial damage (degree of fluorescent staining).
The clinical severity of the cornea was evaluated using a corneal fluorescein staining (CFS) method, which is widely used to detect foreign substances and corneal surface damage. A higher CFS score indicates more severe corneal epitheliopathy.

[4] = test system: mouse experimental dry eye (EDE) model; experiment: Tear volume, phenol red thread test, EDE mouse model
Experimental: as §2, §3, §1
The tear volume of the mice was measured using the Phenol Red Thread (PRT) test on Day 5 and Day 10 after the treatment.

[5] = test system: CD11b+ monocytes; experiment: CD11b+ monocytes by flow cytometry, EDE mouse model; details: for geometric mean number of CD11b+ monocytes: cornea
Experimental: The cornea, conjunctiva, and each tissue required for analysis were excised with scissors, incised, and shaken with 0.5 mg/mL collagenase type D at 37° C. for 1 hour. After pulverizing the tissue, the resulting mixture was passed through a cell strainer, centrifuged, and resuspended in phosphate-buffered saline containing 1% bovine serum albumin.
In DED, corneal barrier destruction and epithelial cell loss are accompanied by bone marrow and T cell infiltration. Activated T lymphocytes are the primary producers of Th-1 cytokines and interferon (IFN)-γ, which promote cell death at the ocular surface. To evaluate the anti-inflammatory effect of (PEG)-BHD1028 in the EDE mouse model, immune cells that play the role of inflammatory cell surface markers were quantified by flow cytometry with one animal per group.

NH2-Tyr-Tyr-Phe-Ala-Tyr-His-Pro-Asn-Ile-Pro-Gly-Leu-Tyr-Tyr-Phe-COOH (H-YYFAYHPNIPGLYYF-OH; also: PEGylated, site not given here (mPEG), acetate salt) [(PEG)-BHD1028]
immune cell counts in the corneal stroma ([1]; 0.1%): 399.39±22.22
number of immune cells infiltrated into the conjunctiva ([1]; 0.1%): 624.94±29.29
immune cell counts in the corneal stroma ([1]; 0.2%): 349.89±17.18
number of immune cells infiltrated into the conjunctiva ([1]; 0.2%): 472.41±39.06
immune cell counts in the corneal stroma ([1]; 0.4%): 305.06±13.88
number of immune cells infiltrated into the conjunctiva ([1]; 0.4%): 427.22±29.29
STT-2 ([2]; rabbit DED, 0.1% BID, Day 5): 4.67 ± 0.65 mm
STT-2 ([2]; rabbit DED, 0.1% BID, Day 10): 6.50 ± 0.87 mm
STT-2 ([2]; rabbit DED, 0.2% BID, Day 5): 3.33 ± 0.51 mm
STT-2 ([2]; rabbit DED, 0.2% BID, Day 10): 7.50 ± 0.99 mm
STT-2 ([2]; rabbit DED, 0.4% BID, Day 5): 4.33 ± 0.45 mm
STT-2 ([2]; rabbit DED, 0.4% BID, Day 10): 6.67 ± 1.02 mm
STT-2 ([2]; rabbit, 0.1% group, Baseline (before BAC treatment)): 6.67 ± 0.96 mm
STT-2 ([2]; rabbit, 0.1% group, Day 0 (EDE), before treatment): 3.00 ± 1.22 mm
STT-2 ([2]; rabbit, 0.2% group, Baseline (before BAC treatment)): 8.50 ± 1.39 mm
STT-2 ([2]; rabbit, 0.2% group, Day 0 (EDE), before treatment): 3.33 ± 1.28 mm
STT-2 ([2]; rabbit, 0.4% group, Baseline (before BAC treatment)): 9.17 ± 1.23 mm
STT-2 ([2]; rabbit, 0.4% group, Day 0 (EDE), before treatment): 3.33 ± 1.22 mm
CFS ([3]; 0.001%, Day 5): 9.875 ± 1.808 score
CFS ([3]; 0.001%, Day 10): 11.000 ± 1.927 score
CFS ([3]; 0.01%, Day 5): 8.625 ± 1.598 score
CFS ([3]; 0.01%, Day 10): 7.625 ± 1.598 score
CFS ([3]; 0.1%, Day 5): 8.125 ± 1.553 score
CFS ([3]; 0.1%, Day 10): 8.375 ± 1.302 score
Tear volume ([4]; 0.001% eye drops three times a day, Day 5): 0.024 ± 0.003 µL
Tear volume ([4]; 0.001% eye drops three times a day, Day 10): 0.021 ± 0.002 µL
Tear volume ([4]; 0.01% eye drops three times a day, Day 5): 0.026 ± 0.003 µL
Tear volume ([4]; 0.01% eye drops three times a day, Day 10): 0.027 ± 0.003 µL
Tear volume ([4]; 0.1% eye drops three times a day, Day 5): 0.028 ± 0.002 µL
Tear volume ([4]; 0.1% eye drops three times a day, Day 10): 0.032 ± 0.004 µL
number of CD11b+ monocytes ([5]; conjunctiva, 0.001%): 352.09
number of CD11b+ monocytes ([5]; conjunctiva, 0.01%): 330.48
number of CD11b+ monocytes ([5]; conjunctiva, 0.1%): 36.35
geometric mean number of CD11b+ monocytes ([5]; 0.001%): 178.06
geometric mean number of CD11b+ monocytes ([5]; 0.01%): 131.59
geometric mean number of CD11b+ monocytes ([5]; 0.1%): 126.25
number of CD11b+ monocytes ([5]; lacrimal gland, 0.001%): 84
number of CD11b+ monocytes ([5]; lacrimal gland, 0.01%): 74.60
number of CD11b+ monocytes ([5]; lacrimal gland, 0.1%): 60.48
